Experimental data from ChEMBL document CHEMBL1201862, “PubChem BioAssay data set” (2004).
The source made the active and inactive calls.

Assays:
Steroidogenic factor 1 = Steroidogenic factor 1 (Homo sapiens, UniProt Q13285); assay: Counterscreen for inverse agonists of the liver receptor homolog-1 (LRH-1; NR5A2): Luminescence-based cell-based high throughput dose response assay to identify inverse agonists of the Steroidogenic Factor 1 Nuclear Receptor (SF1; NR5A1).; assay type: functional
[1] = biological target: Nuclear receptor subfamily 5 group A member 2 (Homo sapiens, UniProt O00482); assay type: functional, cell-based;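 further: HEK293T cells transfected with LRH-1 and a StAR promoter luciferase reporter; potency for inhibitors that lower LRH-1 driven reporter light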
Nuclear receptor subfamily 5 group A member 2, sequence (O00482 whole entry): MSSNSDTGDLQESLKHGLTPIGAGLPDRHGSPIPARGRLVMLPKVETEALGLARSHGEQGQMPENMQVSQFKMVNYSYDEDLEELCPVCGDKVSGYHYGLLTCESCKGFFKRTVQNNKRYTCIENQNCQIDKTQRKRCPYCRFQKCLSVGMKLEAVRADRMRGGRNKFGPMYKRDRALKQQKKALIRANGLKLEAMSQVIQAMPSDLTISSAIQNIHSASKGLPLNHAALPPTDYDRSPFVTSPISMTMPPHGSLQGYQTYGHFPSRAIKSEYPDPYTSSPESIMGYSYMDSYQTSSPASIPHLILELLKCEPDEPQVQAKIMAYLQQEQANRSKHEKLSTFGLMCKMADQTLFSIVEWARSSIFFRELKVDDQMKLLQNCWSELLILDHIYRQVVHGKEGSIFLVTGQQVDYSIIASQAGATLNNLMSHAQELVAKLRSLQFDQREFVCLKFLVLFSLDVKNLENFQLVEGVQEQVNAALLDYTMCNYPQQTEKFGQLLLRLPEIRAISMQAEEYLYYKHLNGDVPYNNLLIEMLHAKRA

[2] = StAR promoter reporter inhibition counter-screen, dose response, counter-screen for LRH-1 inverse agonist project, cell-based, luminescence, luciferase reporter (AID 651969); assay type: functional
[3] = biological target: T1, Low molecular weight phosphotyrosine protein phosphatase (Homo sapiens, UniProt P24666); assay type: functional; details: read-out: IC50_Mean;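 further: Dose-response confirmation assay measuring inhibition of LMPTP enzyme activity by fluorescence intensity read-out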
T1 sequence (P24666 whole entry): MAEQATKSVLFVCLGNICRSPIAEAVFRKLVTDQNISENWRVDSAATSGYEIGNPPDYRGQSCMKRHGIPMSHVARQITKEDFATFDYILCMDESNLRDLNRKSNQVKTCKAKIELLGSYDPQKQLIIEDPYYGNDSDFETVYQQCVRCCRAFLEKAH

[4] = biological target: Dual specificity tyrosine-phosphorylation-regulated kinase 1A (Rattus norvegicus, UniProt Q63470); assay type: biochemical, Homo sapiens
Fatty acid synthase [5] = biological target: T2, Fatty acid synthase (Homo sapiens, UniProt P49327); assay: FAS thioesterase domain inhibitors, dose response, biochemical, kinetic fluorescence intensity (AID 624326); assay type: functional;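 further: rate of fluorescence rise from hydrolysis of a fluorogenic O-methyl fluorescein ester substrate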
T2 sequence (P49327 whole entry, the tested form may be a part): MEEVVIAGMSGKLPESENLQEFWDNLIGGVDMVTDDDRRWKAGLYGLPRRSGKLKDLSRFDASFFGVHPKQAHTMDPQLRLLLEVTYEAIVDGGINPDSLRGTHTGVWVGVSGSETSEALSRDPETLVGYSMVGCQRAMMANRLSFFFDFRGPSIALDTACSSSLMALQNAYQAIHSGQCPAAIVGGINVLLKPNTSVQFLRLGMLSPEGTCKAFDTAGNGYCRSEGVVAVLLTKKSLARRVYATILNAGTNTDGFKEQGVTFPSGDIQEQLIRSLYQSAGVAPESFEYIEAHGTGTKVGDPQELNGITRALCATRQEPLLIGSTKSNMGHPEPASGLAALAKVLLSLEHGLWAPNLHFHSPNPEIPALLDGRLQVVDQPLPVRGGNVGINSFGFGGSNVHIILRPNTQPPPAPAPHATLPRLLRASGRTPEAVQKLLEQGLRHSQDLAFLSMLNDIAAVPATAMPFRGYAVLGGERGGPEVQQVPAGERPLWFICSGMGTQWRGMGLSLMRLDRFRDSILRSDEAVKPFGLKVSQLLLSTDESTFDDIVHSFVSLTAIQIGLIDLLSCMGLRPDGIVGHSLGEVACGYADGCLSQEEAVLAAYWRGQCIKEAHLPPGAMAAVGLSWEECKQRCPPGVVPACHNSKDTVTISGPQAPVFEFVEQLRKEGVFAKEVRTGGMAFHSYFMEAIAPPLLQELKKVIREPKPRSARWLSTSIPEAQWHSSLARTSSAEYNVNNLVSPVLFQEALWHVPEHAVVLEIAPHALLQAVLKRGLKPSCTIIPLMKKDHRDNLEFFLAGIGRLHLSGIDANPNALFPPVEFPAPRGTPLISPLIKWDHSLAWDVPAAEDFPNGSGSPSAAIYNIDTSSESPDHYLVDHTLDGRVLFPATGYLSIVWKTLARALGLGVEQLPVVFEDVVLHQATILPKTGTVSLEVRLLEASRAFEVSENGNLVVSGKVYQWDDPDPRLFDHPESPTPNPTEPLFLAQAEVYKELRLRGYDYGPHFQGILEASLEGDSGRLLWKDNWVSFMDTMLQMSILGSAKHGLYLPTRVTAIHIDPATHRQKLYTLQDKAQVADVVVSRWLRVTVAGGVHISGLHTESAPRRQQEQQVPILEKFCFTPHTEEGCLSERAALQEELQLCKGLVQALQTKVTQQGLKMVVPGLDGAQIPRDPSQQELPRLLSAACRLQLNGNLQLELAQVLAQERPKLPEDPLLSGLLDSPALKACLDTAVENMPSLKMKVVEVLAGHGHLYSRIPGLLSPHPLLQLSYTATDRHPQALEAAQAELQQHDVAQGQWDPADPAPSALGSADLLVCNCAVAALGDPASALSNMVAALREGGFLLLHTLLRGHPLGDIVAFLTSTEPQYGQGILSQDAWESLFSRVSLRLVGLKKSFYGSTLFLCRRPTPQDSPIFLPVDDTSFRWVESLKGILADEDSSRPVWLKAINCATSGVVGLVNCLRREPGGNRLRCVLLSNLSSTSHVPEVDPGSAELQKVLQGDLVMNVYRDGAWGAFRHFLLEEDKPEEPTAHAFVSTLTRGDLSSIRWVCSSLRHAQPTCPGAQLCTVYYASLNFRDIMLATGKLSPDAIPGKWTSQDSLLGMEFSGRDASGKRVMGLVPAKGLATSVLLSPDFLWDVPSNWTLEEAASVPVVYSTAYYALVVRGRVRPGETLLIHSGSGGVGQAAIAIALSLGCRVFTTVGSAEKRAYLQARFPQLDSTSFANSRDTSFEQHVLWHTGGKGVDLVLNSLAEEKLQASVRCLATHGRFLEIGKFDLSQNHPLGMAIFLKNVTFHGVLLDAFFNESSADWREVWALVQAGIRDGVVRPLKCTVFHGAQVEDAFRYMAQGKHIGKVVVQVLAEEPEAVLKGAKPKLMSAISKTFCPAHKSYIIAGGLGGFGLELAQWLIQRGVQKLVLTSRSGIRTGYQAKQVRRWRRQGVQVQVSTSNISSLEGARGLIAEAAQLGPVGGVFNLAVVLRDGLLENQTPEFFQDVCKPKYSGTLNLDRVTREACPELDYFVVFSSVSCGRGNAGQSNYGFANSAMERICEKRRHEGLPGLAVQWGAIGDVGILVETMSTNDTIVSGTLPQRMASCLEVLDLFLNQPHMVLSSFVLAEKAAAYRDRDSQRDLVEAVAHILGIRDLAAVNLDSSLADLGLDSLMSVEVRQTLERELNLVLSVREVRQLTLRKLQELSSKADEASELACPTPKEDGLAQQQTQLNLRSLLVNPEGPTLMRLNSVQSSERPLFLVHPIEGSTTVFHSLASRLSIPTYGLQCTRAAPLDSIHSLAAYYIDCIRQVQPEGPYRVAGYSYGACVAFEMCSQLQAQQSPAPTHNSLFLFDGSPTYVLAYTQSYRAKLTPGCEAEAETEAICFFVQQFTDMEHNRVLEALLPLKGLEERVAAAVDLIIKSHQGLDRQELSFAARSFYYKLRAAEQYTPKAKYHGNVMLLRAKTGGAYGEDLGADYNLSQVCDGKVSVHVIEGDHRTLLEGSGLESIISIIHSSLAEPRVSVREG

Fatty acid synthase [6] = biological target: T2, Fatty acid synthase; assay: FAS thioesterase domain inhibitors, dose response, biochemical, endpoint fluorescence intensity, uHTS hits (AID 624327); assay type: functional;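 further: fluorescence from hydrolysis of an O-methyl fluorescein acyl ester substrate by the enzyme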
[7] = NIH-3T3 fibroblast cytotoxicity, dose response, cytotoxicity control, cell-based, fluorescence, Alamar Blue, secondary assay (AID 2327); assay type: functional;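 further: NIH-3T3 mouse fibroblasts cultured with fluconazole at 8 µg/mL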
[8] = C. albicans growth with fluconazole, confirmation, fluorescence, retest (AID 2467); assay type: functional, cell-based
BJ [9] = assay: cytotoxicity toward BJ-TERT-LT-ST fibroblasts, dose response, cell-based, RAS-independent, luminescence (AID 1935); assay type: functional; details: Homo sapiens;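 further: BJ fibroblasts immortalized with TERT plus LT and ST oncogenes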
[10] = A Cell Based Secondary Assay To Explore Cytotoxicity of Compounds that Sensitize Mycobacterium Tuberculosis to Beta-Lactam Antibiotics.; assay type: functional
BJ [11] = assay: cells; assay type: functional, cell-based; details: Homo sapiens
[12] = cytotoxicity toward DRD oncogenic fibroblasts, dose response, cell-based, non-viral oncogenic, luminescence (AID 1934); assay type: functional; details: Homo sapiens
BJ [13] = assay: cytotoxicity toward BJ-TERT fibroblasts, dose response, cell-based, RAS-independent, luminescence (AID 1933); assay type: functional; details: Homo sapiens
[14] = biological target: T3, Heat shock factor protein 1 (Mus musculus, UniProt P38532); assay: HSF1 potentiators in luciferase reporter cells, confirmation, cell-based, NIH3T3, luminescence, dose retest (AID 435004); assay type: functional;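 further: stress induced by proteasome inhibitor MG132 added 30 min after compound; luciferase reporter driven by HSF1 response element in NIH3T3 cells; actives raise luminescence as potentiators of the MG132 stress response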
T3 sequence (P38532 whole entry): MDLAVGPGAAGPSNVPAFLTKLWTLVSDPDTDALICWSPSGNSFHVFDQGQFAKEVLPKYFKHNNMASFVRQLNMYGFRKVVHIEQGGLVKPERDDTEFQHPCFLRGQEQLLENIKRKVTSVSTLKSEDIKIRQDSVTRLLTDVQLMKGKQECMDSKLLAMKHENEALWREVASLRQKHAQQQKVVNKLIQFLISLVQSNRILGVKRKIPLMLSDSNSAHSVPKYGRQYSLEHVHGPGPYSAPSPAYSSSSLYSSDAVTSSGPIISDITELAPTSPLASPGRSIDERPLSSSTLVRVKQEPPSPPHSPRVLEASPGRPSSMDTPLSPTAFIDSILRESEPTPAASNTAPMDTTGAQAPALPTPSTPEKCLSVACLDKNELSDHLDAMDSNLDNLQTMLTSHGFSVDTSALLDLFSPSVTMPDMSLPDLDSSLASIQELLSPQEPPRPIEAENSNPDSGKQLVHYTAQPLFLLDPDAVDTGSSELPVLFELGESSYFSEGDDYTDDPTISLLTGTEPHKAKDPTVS

cells [15] = assay type: functional, cell-based
cells [16] = assay type: functional, cell-based; remark: listed apart in the source
[17] = ZM109 Env clade C HIV-1 fusion inhibitors, dose response, HeLa effector, CEM target cells, luciferase, cherry-pick (AID 652058); assay type: functional, cell-based
[18] = biological target: Eukaryotic translation initiation factor 4E (Mus musculus, UniProt P63073); assay: eIF4E–eIF4G protein interaction inhibitors, dose response, biochemical, TR-FRET (AID 855); assay type: functional;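 further: potency for disrupting eIF4E binding to eIF4GI seen as loss of FRET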
Eukaryotic translation initiation factor 4E, sequence (P63073 whole entry): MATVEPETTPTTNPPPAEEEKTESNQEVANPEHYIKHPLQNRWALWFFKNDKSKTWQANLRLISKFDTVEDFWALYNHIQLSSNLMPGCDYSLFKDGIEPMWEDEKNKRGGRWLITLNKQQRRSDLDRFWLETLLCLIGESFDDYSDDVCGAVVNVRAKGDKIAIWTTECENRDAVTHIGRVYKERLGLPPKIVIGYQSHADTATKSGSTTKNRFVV

[19] = control 3'UTR Renilla luciferase suppression, dose response, counter-screen for Shn3 inhibitor project, cell-based, Clone20-Shn3RL, cherry-picked (AID 624133); assay type: functional
[20] = Shn3 3'UTR reporter inhibitors, dose response, cell-based, Clone20 osteoblasts, firefly luciferase, cherry-picked (AID 624132); assay type: functional;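 further: firefly luciferase luminescence from reporter carrying the Shn3 3'UTR in osteoblasts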
[21] = HepG2 cell cytotoxicity, dose response, cytotoxicity control for Shn3 inhibitor project, CellTiter-Glo, cherry-picked (AID 624134); assay type: functional, cell-based

Steroidogenic factor 1, sequence (Q13285 whole entry): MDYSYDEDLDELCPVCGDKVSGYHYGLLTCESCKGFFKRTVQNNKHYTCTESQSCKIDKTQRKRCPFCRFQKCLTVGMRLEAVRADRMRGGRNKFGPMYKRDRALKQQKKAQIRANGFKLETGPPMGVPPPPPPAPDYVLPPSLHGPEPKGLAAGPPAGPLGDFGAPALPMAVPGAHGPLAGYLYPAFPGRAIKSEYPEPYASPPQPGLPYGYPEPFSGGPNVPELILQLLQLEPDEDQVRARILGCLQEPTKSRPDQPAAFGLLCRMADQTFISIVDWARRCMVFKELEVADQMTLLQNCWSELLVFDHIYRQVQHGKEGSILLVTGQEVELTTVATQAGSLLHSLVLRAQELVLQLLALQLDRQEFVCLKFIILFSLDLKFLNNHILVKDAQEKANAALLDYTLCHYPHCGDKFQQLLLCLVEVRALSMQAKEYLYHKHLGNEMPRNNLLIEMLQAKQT

With `CC(=O)Nc1ccc(NC(=O)CSc2nnnn2C2CCCCC2)cc1` the IC50 (Steroidogenic factor 1) was 7.58 µM (active), the IC50 [1] was 11.8 µM (inactive) and the IC50 [2] was 35.9 µM (inactive).
For `O=C(Nc1cccc(-c2cn3ccccc3n2)c1)c1cc2ccccc2oc1=O`, the IC50 [3] was 7.49 µM (active).
For `O=C(Nc1cccc(-c2nn[nH]n2)c1)c1ccc(Br)s1`, the AC50 [4] was 0.875 µM (active).
With `CCn1c(=S)sc2c(=O)n(CC(=O)NC(C)CCc3ccccc3)c(C)nc21` (stereo unspecified) the IC50 (Fatty acid synthase [5]) was 16.8 µM (active) and the IC50 (Fatty acid synthase [6]) was 9.52 µM (active).
In the case of `CC(C)(C)CC(=O)Nc1nnc(C(F)(F)F)s1`, the EC50 [7] is reported as > 160 µM (inactive) and the EC50 [8] is reported as 0.13 µM (active).
For `C=CCn1c(O)c(N=NC(=S)Nc2ccc(OC)cc2)c2ccccc21`, the EC50 [7] was > 150 µM (inactive).
In the case of `CN(C)S(=O)(=O)c1ccc(C(=O)/C=C/c2cccnc2)cc1`, the EC50 (BJ [9]) is reported as > 150 µM (inconclusive), the CC50 [10] is reported as 17.5 µM (active) and the EC50 (BJ [11]) is reported as > 150 µM (not active). The EC50 [12] was 10.4 µM (active) and the EC50 (BJ [13]) was 10.4 µM (active).
With `COc1ccc(-n2nc3c(N4CCC(C(=O)N5CCC(C)CC5)CC4)nnc(C)c3c2C)cc1` the EC50 [7] was > 160 µM (inactive), the EC50 [8] was > 38 µM (not active) and the EC50 [14] was > 260 µM (inactive).
In the case of `CCCn1c(SCC(=O)Nc2ccccc2CC)nnc1C(C)C`, the EC50 (cells [15]) is reported as > 350 µM (not active) and the EC50 (cells [16]) is reported as > 350 µM (not active).
In the case of `CCn1cc(C(=O)O)c(=O)c2cc(F)c(N3CCN(C(=S)NC(=O)c4ccc(F)cc4)CC3)cc21`, the IC50 [3] is reported as 11.7 µM (active).
With `CCc1ccc(C(=O)CN2C(=O)NC(C)(c3ccc(C)cc3)C2=O)cc1` (stereo unspecified) the AC50 [17] was 69 µM (active).
In the case of `CC1CCN(C(=O)c2ccc3c(Cl)c4c(nc3c2)CCCC4)CC1`, the IC50 (Fatty acid synthase [5]) is reported as 6.9 µM (active), the IC50 (Fatty acid synthase [6]) is reported as 5.24 µM (active) and the IC50 [18] is reported as 50 µM (inactive).
With `CC(C)Cn1c2c(c(O)c(C(=O)Nc3ccc(F)cc3)c1=O)CCCC2` the CC50 [10] was > 40 µM (active).
With `Nc1nc(CN2CCN(c3ccccn3)CC2)nc(Nc2ccc(F)cc2)n1` the EC50 [7] was > 150 µM (inconclusive) and the EC50 [8] was > 38 µM (not active).
For `CN(C)c1ccc(NC(=O)C2C3C=CC(C3)C2C(=O)O)cc1` (stereo unspecified), the EC50 [7] was > 160 µM (inactive) and the EC50 [8] was > 38 µM (not active).
For `CCc1sc2nc(SCC(=O)Nc3cc(C)on3)n(-c3cccc(OC)c3)c(=O)c2c1C`, the CC50 [10] was 36.3 µM (active).
In the case of `CCOC(=O)c1c(-c2ccccc2)oc2cc(CN(C)C)c(O)c(CN(C)C)c12`, the EC50 (cells [15]) is reported as > 350 µM (not active), the EC50 (cells [16]) is reported as 28 µM (active) and the AC50 [19] is reported as 5.5 µM (active). For the same compound, the AC50 [20] was 7.81 µM (active) and the AC50 [21] was 21.2 µM (active).
